In paper PMC6442233, “SAR and molecular mechanism studies of monoamine oxidase inhibition by selected chalcone analogs” (Journal of Enzyme Inhibition and Medicinal Chemistry, 2019):

Assays:
human MAO-A [1] = target: T1, human MAO-A (Homo sapiens, UniProt P21397); test: IC50 determination for MAO-A inhibition (kynuramine, fluorescence); assay type: biochemical; conditions: recombinant hMAO-A, kynuramine 50 μM, mean ± SD (triplicate)
T1 construct: purchased Sigma-Aldrich
T1 sequence (P21397 1-527): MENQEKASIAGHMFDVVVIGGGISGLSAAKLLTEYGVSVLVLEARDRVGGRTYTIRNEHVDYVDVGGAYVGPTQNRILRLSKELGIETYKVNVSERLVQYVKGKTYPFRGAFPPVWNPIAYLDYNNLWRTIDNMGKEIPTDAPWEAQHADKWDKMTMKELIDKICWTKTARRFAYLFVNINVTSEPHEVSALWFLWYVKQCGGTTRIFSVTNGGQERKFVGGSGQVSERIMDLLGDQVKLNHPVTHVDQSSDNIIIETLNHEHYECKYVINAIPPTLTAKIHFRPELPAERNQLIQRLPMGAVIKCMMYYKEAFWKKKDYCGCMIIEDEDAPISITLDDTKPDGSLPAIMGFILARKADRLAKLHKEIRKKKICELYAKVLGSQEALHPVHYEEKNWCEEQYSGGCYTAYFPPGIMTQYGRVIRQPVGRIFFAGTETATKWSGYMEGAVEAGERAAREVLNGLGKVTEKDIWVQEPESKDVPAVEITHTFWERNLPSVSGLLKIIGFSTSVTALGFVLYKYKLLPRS
Procedure: (§1) IC50 values for the inhibition of MAO were determined by using the recombinant human MAO-A and MAO-B enzymes (Sigma-Aldrich). Enzyme reactions were performed at a final volume of 200 µL in white 96-well microplates (Eppendorf), with the reaction solvent consisting of potassium phosphate buffer (100 mM, pH 7.4, adjusted to isotonicity with KCl). The reactions contained the nonselective MAO substrate, kynuramine (50 μM), and the test inhibitors at 0.003–100 µM. The test compounds were initially dissolved in DMSO (100%), and after addition to the reactions yielded a concentration of 4% DMSO. Control reactions were included, which contained substrate and 4% DMSO but no test inhibitor. The MAO reactions were started by adding MAO-A (0.0075 mg protein/mL) or MAO-B (0.015 mg protein/mL), and were subsequently incubated for a period of 20 min (37 °C) in a convection oven. A volume of 80 µL 2 N sodium hydroxide was added to the reactions, and the fluorescence intensity of 4-hydroxyquinoline (the end-product of the MAO-catalyzed metabolism of kynuramine) in the reactions was measured at λex 310 and λem 400 nm. To quantify 4-hydroxyquinoline, a calibration curve (linear) ranging from 0.047 to 1.56 μM, was employed. […] These measurements were carried out in triplicate and the IC50 values are presented as the mean ± standard deviation (SD)[18].
(§2) The formation of the dihydropyridinium species (MMDP^+) as a MAO-catalyzed oxidation product of MMTP was monitored at 420 nm. […] Based on this, the IC50 values were determined using kynuramine as a nonselective substrate. The rate of oxidation of kynuramine by MAO was monitored by measuring the fluorescence of the oxidation product, 4-hydroxyquinoline (λex= 310 nm; λem= 400 nm).

human MAO-B [2] = target: T2, human MAO-B (Homo sapiens, UniProt P27338); test: IC50 determination for MAO-B inhibition (kynuramine, fluorescence); assay type: biochemical; conditions: for Selectivity index: SI = IC50(MAO-A)/IC50(MAO-B); for IC50: recombinant hMAO-B, kynuramine 50 μM, mean ± SD (triplicate)
T2 construct: purchased Sigma-Aldrich
T2 sequence (P27338 1-520): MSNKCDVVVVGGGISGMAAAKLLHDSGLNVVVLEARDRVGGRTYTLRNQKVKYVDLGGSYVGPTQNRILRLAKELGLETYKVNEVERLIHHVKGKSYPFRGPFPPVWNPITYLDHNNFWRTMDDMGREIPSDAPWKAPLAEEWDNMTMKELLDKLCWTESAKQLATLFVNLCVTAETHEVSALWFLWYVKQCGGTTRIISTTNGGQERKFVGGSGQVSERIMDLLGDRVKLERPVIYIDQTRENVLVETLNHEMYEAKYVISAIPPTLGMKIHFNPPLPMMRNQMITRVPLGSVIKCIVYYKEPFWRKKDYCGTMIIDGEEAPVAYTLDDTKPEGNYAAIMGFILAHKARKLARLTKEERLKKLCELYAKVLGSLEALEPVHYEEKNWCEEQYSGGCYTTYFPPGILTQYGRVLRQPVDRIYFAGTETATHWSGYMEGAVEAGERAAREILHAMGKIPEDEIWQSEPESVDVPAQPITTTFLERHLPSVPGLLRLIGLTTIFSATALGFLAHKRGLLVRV
Procedure: as §1, §2

[3] = system: Rat hepatoma (H4IIE) cells; test: Dopamine assay in H4IIE cells (HPLC with electrochemical detection); assay type: cell-based; conditions: 70 µM compound, 50 µM L-DOPA
Procedure: (§3) Rat hepatoma (H4IIE) cells were purchased from American Type Culture Collection (ATCC). H4IIE cells are from rat liver, and contain both MAO-A and MAO-B in approximately equal levels. Cells were cultured in Eagle’s minimum essential medium (EMEM) supplemented with 10% fetal bovine serum (FBS) and 1% streptomycin/penicillin at 37 °C in a 5% CO2 humidified incubator. Cells were plated at a cell density of 3.0 × 10^5 cells in each well of six well plates. Upon 80% confluence, the cells were washed with phosphate buffered saline (PBS) and the media were changed to HBSS supplemented with 10 mM HEPES and 5 mM D-glucose, pH 7.4. These media also contained calcium chloride (1.26 mM) and magnesium chloride (0.5 mM). Cells were then treated with tolcapone (1 0^−6 M), a catechol-O-methyltransferase (COMT) inhibitor to protect dopamine from enzymatic degradation, 20 min prior to starting the experiment. The cells were treated with the negative vehicle control (1% DMSO) or 70 µM of the MAO-B inhibitors (compounds 12, 14, 16, and 17) with the DMSO concentration also being 1%. The cells were subsequently treated with L-DOPA (50 µM). To measure dopamine release and MAO-B gene expression, both the cells and media were collected at 0, 30, 60, and 120 min after treatment. Dopamine level was measured in the supernatant aspirated from the cells by using high performance liquid chromatography (HPLC), while the cells were lysed with trizol for RNA extraction and subsequent gene expression studies.
Rat hepatoma cells (H4IIE) were treated with 1% DMSO (vehicle-control), compounds 12, 14, 16, or 17 for different time points at a concentration of 70 µM of each compound along with 50uM L-DOPA.
The concentrations of dopamine were detected using a CoulArray electrochemical array detector system as described previously. Briefly, supernatants obtained from cell culture were filtered using 0.22 μm filter. The filtrates were subsequently injected onto a C18 column (3.2 × 150 mm, 3 μm particle size, Thermo Scientific). The mobile phase consisted of a mixture of 54.3 mM sodium phosphate, 0.215 mM octyl sodium sulfate, 0.32 mM citric acid and 11% methanol. Dopamine concentrations were measured with the CoulArray Electrochemical Array Detector. The chromatograms were analyzed using the CoulArray software. A standard calibration curve was determined using different concentrations of an external standard dopamine (SigmaAldrich).
(§4) One-way ANOVA followed by Dunnett’s test (compared to the vehicle-control) was used to analyze the data obtained for the dopamine concentrations for compounds 12, 14, 16, and 17targeting MAO-B at 0, 30, 60, and 120 min. One-way ANOVA followed by Newman–Keuls multiple comparison tests was used to analyze time-dependent effects of compounds 14 and 17 on the relative mRNA expression (triplicate) of MAO-B enzyme.

MAO-B mRNA expression = MAO-B mRNA expression in H4IIE cells (qRT-PCR); assay type: cell-based, rat; conditions: 70 µM
Procedure: as §3
Total RNA was isolated using the Trizol agent (Invitrogen). One μg of RNA from each sample was reverse transcribed to cDNA using the M-MLV reverse transcriptase kit, according to the manufacturer’s instruction (Promega). PowerUp SYBR green master mix (Life technologies) was used for quantitative real-time polymerase chain reaction (qRT-PCR) for analysis of gene expression. The following primers were used (IDTs) MAO-B forward, […]; MAO-B reverse, […]; β-actin forward, […] and β-actin reverse, […]. qRT-PCR was performed in a 384 well plates with the Quant Studio-5 instrument (Applied Biosystems). Samples were carried out in triplicate in a 10 µL reaction volume using the following cycling conditions: UDG activation for one cycle at 50 °C for 2 min, followed by a single cycle at 95 °C for 2 min, then 40 cycles of denaturation at 95 °C for 15 s, and annealing at 60 °C for 1 min. β-actin was used as a loading control and gene expression was calculated using the 2^-ΔΔCT method as described previously.
as §4

human MAO-A [4] = target: T1, human MAO-A; test: Reversibility of MAO-A inhibition by dialysis; assay type: biochemical; conditions: for Reversibility of MAO-A inhibition: dialysis 24 h, inhibitor at 4 × IC50
Procedure: (§5) The reversibility of inhibition of MAO by compound 16 was investigated by dialysis. Dialysis cassettes (Slide-A-Lyzer®; Thermo Scientific) with a volume of 0.5–3 mL and a molecular weight cutoff of 10,000 were used for the dialysis. […] The volume of these mixtures was 0.8 mL, and contained 4% DMSO. The mixtures were pre-incubated for 15 min at 37 °C and then dialyzed at 4 °C in buffer (80 mL), using the above buffer as dialysis buffer. After 3 and 7 h of dialysis, the dialysis buffer was changed with fresh buffer. […] For comparison, incubations of the MAOs and the test inhibitor were prepared as above but were not dialyzed and kept at 4 °C over the same time period. These experiments were carried out in triplicate, and the remaining enzyme catalytic rates are reported as the mean (± SD).

human MAO-B [5] = target: T2, human MAO-B; test: Lineweaver-Burk plots and Ki calculation, MAO-B; assay type: biochemical
Procedure: (§6) Sets of six Lineweaver–Burk plots each were prepared to determine if the inhibition of MAO-A and MAO-B by compound 16 is competitive. […] The substrate, kynuramine, was used at concentrations ranging from 15 to 250 μM, whereas the final enzyme concentration was 0.015 mg protein/mL. […] Ki values were estimated by graphing the slopes of the Lineweaver–Burk plots against inhibitor concentration. The intercept of the x-axis is equal to –Ki.

human MAO-B [6] = target: T2, human MAO-B; test: Reversibility of MAO-B inhibition by dialysis; assay type: biochemical
Procedure: as §5

human MAO-A [7] = target: T1, human MAO-A; test: Lineweaver-Burk plots and Ki calculation, MAO-A; assay type: biochemical
Procedure: as §6

[8] = 4 × IC50, incubated 15 min, dialyzed 24 h, compared to negative control (100%)
[9] = 4 × IC50, not dialyzed, compared to negative control (100%)
[10] = Lineweaver-Burk plots cross on the y-axis
[11] = slopes of Lineweaver-Burk plots vs inhibitor concentration, kynuramine 15-250 μM

SMILES	IC50 (human MAO-A [1]) [µM]	Selectivity index (human MAO-B [2])	IC50 (human MAO-B [2]) [µM]	melting point [°C]	Dopamine concentration vs vehicle-control ([3]; 30 min)	Dopamine concentration vs vehicle-control ([3]; 60 min)	Dopamine concentration vs vehicle-control ([3]; 120 min)	Relative MAO-B mRNA expression vs negative control (MAO-B mRNA expression; 0 min)	Relative MAO-B mRNA expression vs negative control (MAO-B mRNA expression; 30 min)	Relative MAO-B mRNA expression vs negative control (MAO-B mRNA expression; 60 min)	Reversibility of MAO-A inhibition (human MAO-A [4])	further results
O=C(/C=C/c1ccc(F)cc1)c1ccc2c(c1)OCO2 [Compound 14, (E)-1-(benzo[d][1,3]dioxol-5-yl)-3–(4-fluorophenyl)prop-2-en-1-one]	0.506 ± 0.052	11	0.043 ± 0.004	126 to 130	increased	elevation	increase	no significant changes	reduced	no significant changes		Relative MAO-B mRNA expression vs negative control (MAO-B mRNA expression; 120 min): decreased; Relative MAO-B mRNA expression vs 0 min time point (MAO-B mRNA expression; 120 min exposure): decreased
C#CCN(C)Cc1ccccc1 [Pargyline, reference compound]											dialysis failed to restore catalytic activity	
O=C(/C=C/c1ccc([N+](=O)[O-])cc1)c1ccc2c(c1)OCO2 [Compound 17, (E)-1-(benzo[d][1,3]dioxol-5-yl)-3–(4-nitrophenyl)prop-2-en-1-one]	0.927 ± 0.121	13	0.069 ± 0.004	172 to 175	increased	elevation	increase	no significant changes	reduced	no significant changes		Relative MAO-B mRNA expression vs 0 min time point (MAO-B mRNA expression; 30 min exposure): reduced; Relative MAO-B mRNA expression vs 0 min time point (MAO-B mRNA expression; 60 min exposure): reduced
O=C(/C=C/c1ccc(Cl)cc1)c1ccc2c(c1)OCO2 [Compound 16, (E)-1-(benzo[d][1,3]dioxol-5-yl)-3–(4-chlorophenyl)prop-2-en-1-one]	0.149 ± 0.011	3.0	0.05 ± 0.002								reversibly inhibits	MAO-A activity after dialysis (human MAO-A [4]; [8]): 103%; MAO-A activity, undialyzed samples (human MAO-A [4]; [9]): 31%; Mode of MAO-B inhibition (human MAO-B [5]; [10]): competitive; Ki (human MAO-B [5]; [11]): 20 nM; MAO-B activity after dialysis (human MAO-B [6]; [8]): 105%; MAO-B activity, undialyzed samples (human MAO-B [6]; [9]): 34%; Reversibility of MAO-B inhibition (human MAO-B [6]; dialysis 24 h, inhibitor at 4 × IC50): reversibly inhibits; Mode of MAO-A inhibition (human MAO-A [7]; [10]): competitive; Ki (human MAO-A [7]; [11]): 47 nM
